Converted amounts (≈) assume the structure as drawn. Residues, ends and D or L forms follow the SMILES beside them. No end group written: not given here.
How the values were obtained:
E. coli (ATCC 25922) = type: cell-based, Escherichia coli
How it was run: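 Peptide fractions were incubated with actively growing bacteria in Mueller Hinton medium at a starting concentration of 3×10^4 cells per ml. Growth was monitored continuously in a Bioscreen C reader; polymyxin B served as reference.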

[1] = test system: Acinetobacter baumannilii, K15-9; type: cell-based; conditions: clinical isolate; 37° C.; 3×10^6 cells per ml
Method: (§1) The antibacterial activities of the different peptides were determined by continuous monitoring of bacterial growth with a Bioscreen C microbiology reader (Labsystems Oy, Helsinki, Finland). The test was performed in 100-well flat-bottomed honeycomb plates, in which 50 μl of test fractions were incubated with 50 μl of a suspension of an actively growing culture of bacteria diluted in Mueller Hinton medium to a starting concentration of 3×10^4 cells per ml. The Gram-negative bacteria, Listonella (Vibrio) anguillarum, serotype O2 (FT 1801, a fish pathogenic strain), Pseudomonas aeruginosa and E. coli (ATCC 25922), and the Gram-positive bacteria, C. glutamicum (ATCC 13032) and S. aureus (ATCC 9144), were chosen as test bacteria. The growth chamber was maintained at either 20 or 37° C. during the incubation period. The absorbance was measured at 2 h intervals for 48 h by a turbidometric method with vertical light photometry and a wide band filter (420-580 nm), which is more insensitive to color change in the sample compared to single wavelength detection. Antibacterial activity was determined when the optical density (OD) of the growth control (bacteria plus water) reached an absorbance of 0.3-0.4. Fractions were regarded as active when the OD was less than 50% of the growth control. Polymyxin B (Sigma, St. Louis, Mo., USA), Lactoferricin B, Cecropin P1 and Hyalophora cecropia Cecropin B were used as reference.
(§2) The antimicrobial molecules were also tested against drug resistant clinical isolates, such as the commonly encountered multi-resistant human pathogen S. aureus (MRSA) K15-64 and the glycopeptide (vancomycin)-resistant Enterococccus faecium (GREF) K9-28. The non-clinical isolates Escherichia coli (ATCC 25922), Pseudomonas aeruginosa (ATCC 27853), Corynebacterium glutamicum (ATCC 13032), and Staphylococcus aureus (ATCC 9144) were also tested for comparison. Serial dilutions of synthetic peptides were made in double distilled water and tested according to the method described above. However, in these experiments the starting concentration of bacteria were 3×10^6 cells per ml and the temperature in the growth chamber was 37° C. Polymyxin B was used as positive control for the Gram-negative bacteria.

Bacillus spp K13-61 = type: cell-based; conditions: clinical isolate; 37° C.; 3×10^6 cells per ml
Method: as §1, §2

[2] = test system: Citrobacter freundii, K15-75; type: cell-based; conditions: clinical isolate; 37° C.; 3×10^6 cells per ml
Method: as §1, §2

[3] = test system: Corynebacterium glutamicum, ATCC 13032; type: cell-based; conditions: non-clinical isolate; 37° C.; 3×10^6 cells per ml
Method: as §1, §2

[4] = test system: Enterococcus faecium (GREF), K9-28; type: cell-based; conditions: vancomycin-resistant clinical isolate; 37° C.; 3×10^6 cells per ml
Method: as §1, §2

Escherichia coli, K15-58 = type: cell-based; conditions: clinical isolate; 37° C.; 3×10^6 cells per ml
Method: as §1, §2

Klebsiella K15-72 = type: cell-based; conditions: clinical isolate; 37° C.; 3×10^6 cells per ml
Method: as §1, §2

Pseudomonas K15-60 = type: cell-based
Method: as §1, §2

Salmonella K14-40 = type: cell-based; conditions: clinical isolate; 37° C.; 3×10^6 cells per ml
Method: as §1, §2

[5] = test system: Staphylococcus aureus (MRSA), K15-64; type: cell-based; conditions: multi-resistant clinical isolate; 37° C.; 3×10^6 cells per ml
Method: as §1, §2

[6] = test system: Staphylococcus aureus, ATCC 9144; type: cell-based; conditions: non-clinical isolate; 37° C.; 3×10^6 cells per ml
Method: as §1, §2

Row | Compound | Minimal inhibitory concentration, E. coli (E. coli (ATCC 25922)) [µM] | Minimal inhibitory concentration, Acinetobacter baumannilii, K15-9 [1] [µM] | Minimal inhibitory concentration, Bacillus spp K13-61 (Bacillus spp K13-61) [µM] | Minimal inhibitory concentration, Citrobacter freundii, K15-75 [2] [µM] | Minimal inhibitory concentration, Corynebacterium glutamicum, ATCC 13032 [3] [µM] | Minimal inhibitory concentration, Enterococcus faecium (GREF), K9-28 [4] [µM] | Minimal inhibitory concentration, Escherichia coli, K15-58 (Escherichia coli, K15-58) [µM] | Minimal inhibitory concentration, Klebsiella K15-72 (Klebsiella K15-72) [µM] | Minimal inhibitory concentration, Pseudomonas K15-60 (Pseudomonas K15-60) [µM] | Minimal inhibitory concentration, Salmonella K14-40 (Salmonella K14-40) [µM] | Minimal inhibitory concentration, Staphylococcus aureus (MRSA), K15-64 [5] [µM] | Minimal inhibitory concentration, Staphylococcus aureus, ATCC 9144 [6] [µM]
1 | CC[C@H](C)[C@H](NC(=O)CNC(=O)[C@H](CO)NC(=O)[C@H](CCCCN)NC(=O)[C@@H](NC(=O)[C@H](C)NC(=O)[C@H](Cc1c[nH]cn1)NC(=O)[C@H](CO)NC(=O)[C@@H](NC(=O)[C@H](CCCCN)NC(=O)[C@H](Cc1c[nH]cn1)NC(=O)[C@H](Cc1ccccc1)NC(=O)[C@@H](NC(=O)[C@H](CCCCN)NC(=O)[C@H](CCCCN)NC(=O)[C@H](Cc1ccccc1)NC(=O)C(Cc1c[nH]c2ccc(Br)cc12)NC(=O)CN)[C@@H](C)O)C(C)C)C(C)C)C(=O)N[C@@H](Cc1c[nH]cn1)C(=O)N[C@@H](C)C(=O)O (stereo partly shown) [P17 HC-Br (1-20)] (HELM PEPTIDE1{G.[O=C(C(Cc1c[nH]c2ccc(Br)cc12)N[*:1])[*:2]].F.K.K.T.F.H.K.V.S.H.A.V.K.S.G.I.H.A}$$$$V2.0; N-terminus and C-terminus assumed) | 6.25 (≈ 14.7 µg/mL) |  |  |  |  |  |  |  |  |  |  | 
2 | CC[C@H](C)[C@H](NC(=O)CNC(=O)[C@H](CO)NC(=O)[C@H](CCCCN)NC(=O)[C@@H](NC(=O)[C@H](C)NC(=O)[C@H](Cc1c[nH]cn1)NC(=O)[C@H](CO)NC(=O)[C@@H](NC(=O)[C@H](CCCCN)NC(=O)[C@H](Cc1c[nH]cn1)NC(=O)[C@H](Cc1ccccc1)NC(=O)[C@@H](NC(=O)[C@H](CCCCN)NC(=O)[C@H](CCCCN)NC(=O)[C@H](Cc1ccccc1)NC(=O)C(Cc1c[nH]c2ccc(Br)cc12)NC(=O)CN)[C@@H](C)O)C(C)C)C(C)C)C(=O)N[C@@H](Cc1c[nH]cn1)C(=O)N[C@@H](C)C(=O)NCC(=O)N[C@@H](CCC(N)=O)C(=O)N[C@@H](CCCNC(=N)N)C(=O)NCC(=O)N[C@@H](CS)C(=O)N[C@@H](CO)C(=O)N[C@@H](C)C(=O)N[C@@H](CC(C)C)C(=O)NCC(=O)N[C@@H](Cc1ccccc1)C(=O)O (stereo partly shown) [P17 HC-Br] (HELM PEPTIDE1{G.[O=C(C(Cc1c[nH]c2ccc(Br)cc12)N[*:1])[*:2]].F.K.K.T.F.H.K.V.S.H.A.V.K.S.G.I.H.A.G.Q.R.G.C.S.A.L.G.F}$$$$V2.0) | 1.56 (≈ 5.18 µg/mL) | 1.56 (≈ 5.18 µg/mL) | 6.25 (≈ 20.8 µg/mL) | 1.56 (≈ 5.18 µg/mL) | 0.78 (≈ 2.59 µg/mL) | 0.78 (≈ 2.59 µg/mL) | 3.12 (≈ 10.4 µg/mL) | 3.12 (≈ 10.4 µg/mL) | 3.12 (≈ 10.4 µg/mL) | 6.25 (≈ 20.8 µg/mL) | 6.25 (≈ 20.8 µg/mL) | 12.5 (≈ 41.5 µg/mL)
3 | GWFKKTFHKVSHAVKSGIHA [P17 HC (1-20)] | 6.25 | 6.25 | 50 | 12.5 | 3.12 | 6.25 | 6.25 | >50 | 12.5 | 50 | >50 | >50
4 | GWFKKTFHKVSHAVKSGIHAGQRGCSALGF [P17 HC] | 1.56 | 3.12 | 6.25 | 0.78 | 0.78 | 0.39 | 1.56 | 3.12 | 3.12 | 6.25 | 6.25 | 12.5

— patent US20100093642A1, “NOVEL POLYPEPTIDES” (priority 2006, published 2010)
